Measured values reported in US20240150298A1, “ANTIBACTERIAL COMPOUNDS” (Blacksmith Medicines, Inc., priority 2021, published 2024).
Converted amounts (≈) assume the structure as drawn. Like-named read-outs stand apart in the source and are kept apart here.

How the values were obtained:
E. coli ATCC25922 = assay: Bacterial susceptibility testing, MIC by broth microdilution (CLSI); type: cell-based; details: for MIC: Escherichia coli
Procedure: (§1) Minimal inhibitory concentrations (MIC) were determined by the broth microdilution method in accordance with the Clinical and Laboratory Standards Institute (CLSI) guidelines. In brief, organism suspensions were adjusted to a final inoculum between 3×10^5 and 7×10^5 colony-forming units (CFU)/mL. Drug dilutions and inocula were made in sterile, cation adjusted Mueller-Hinton Broth (Beckton Dickinson). In wells, an inoculum volume of 100 μL was mixed to 2 μL of DMSO with 2-fold serial dilutions of drug. All inoculated microdilution trays were incubated in ambient air at 35° C. for 18-24 h. Following incubation, the lowest concentration of the drug that prevented visible growth (OD600 nm<0.05) was recorded as the MIC. Performance of the assay was monitored by the use of laboratory quality-control strains and compounds with defined MIC spectrum, in accordance with CLSI guidelines.

K. pneumoniae ATCC13883 = assay: as above; type: cell-based; details: for MIC: Klebsiella pneumoniae
Procedure: as §1

P. aeruginosa 209 PAO1 = assay: as above; type: cell-based; details: for MIC: Pseudomonas aeruginosa
Procedure: as §1

P. aeruginosa ATCC27835 = assay: as above; type: cell-based; details: for MIC: Pseudomonas aeruginosa
Procedure: as §1

E. coli LpxC = E. coli LpxC (Escherichia coli, UniProt P0A725); assay: LpxC Binding Assay (Rapid Fire MS assay); type: biochemical
Procedure: (§2) IC50 values against E. coli and P. aeruginosa LpxC are determined using a Rapid Fire MS assay as previously described J. Med. Chem. 2012, 55, 1662-1670.

P. aeruginosa LpxC = molecular target: T1, P. aeruginosa LpxC (Pseudomonas aeruginosa, UniProt P47205); assay: LpxC Binding Assay (Rapid Fire MS assay); type: biochemical
T1 sequence (P47205 1-303): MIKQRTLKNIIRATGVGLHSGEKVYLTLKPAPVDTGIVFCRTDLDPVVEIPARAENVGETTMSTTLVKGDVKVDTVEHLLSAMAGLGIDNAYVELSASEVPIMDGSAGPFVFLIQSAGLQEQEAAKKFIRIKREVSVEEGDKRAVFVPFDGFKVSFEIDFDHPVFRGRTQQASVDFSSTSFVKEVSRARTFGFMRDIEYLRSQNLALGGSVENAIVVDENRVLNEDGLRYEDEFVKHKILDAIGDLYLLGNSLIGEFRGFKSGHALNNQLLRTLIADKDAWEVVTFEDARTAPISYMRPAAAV
Procedure: as §2

[1] = ATCC25922, broth microdilution, 35° C., 18-24 h, read-out: MIC E. coli ATCC25922
[2] = ATCC13883, broth microdilution, 35° C., 18-24 h, read-out: MIC K. pneumoniae ATCC13883
[3] = PAO1, broth microdilution, 35° C., 18-24 h, read-out: MIC P. aeruginosa 209 PAO1
[4] = ATCC27835, broth microdilution, 35° C., 18-24 h, read-out: MIC P. aeruginosa ATCC27835
[5] = broth microdilution, 35° C., 18-24 h
[6] = ATCC25922, read-out: MIC E. coli ATCC25922
[7] = ATCC13883, read-out: MIC K. pneumoniae ATCC13883
[8] = PAO1, read-out: MIC P. aeruginosa 209 PAO1
[9] = ATCC27835, read-out: MIC P. aeruginosa ATCC27835

Sequence of E. coli LpxC (P0A725 whole entry): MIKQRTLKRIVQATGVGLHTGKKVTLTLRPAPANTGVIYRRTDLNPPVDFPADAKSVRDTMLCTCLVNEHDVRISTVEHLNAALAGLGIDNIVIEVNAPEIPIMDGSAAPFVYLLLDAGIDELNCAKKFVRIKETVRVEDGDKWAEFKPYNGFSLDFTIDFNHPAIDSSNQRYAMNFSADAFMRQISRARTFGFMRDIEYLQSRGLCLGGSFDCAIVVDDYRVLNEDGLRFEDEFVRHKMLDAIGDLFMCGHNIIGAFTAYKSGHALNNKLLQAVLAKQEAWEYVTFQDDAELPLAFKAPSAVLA

Structure (SMILES)	MIC (E. coli ATCC25922; [1]) [µg/mL]	MIC (K. pneumoniae ATCC13883; [2]) [µg/mL]	MIC (P. aeruginosa 209 PAO1; [3]) [µg/mL]	MIC (P. aeruginosa ATCC27835; [4]) [µg/mL]	other results
C[C@H](O)c1nccn1C/C=C/c1ccc(-c2ccc(O[C@@H]3C[C@H]3N)cc2)cc1 (racemic) [Compound 4, (S)-1-(1-((E)-3-(4′-((trans)-2-aminocyclopropoxy)-[1,1′-biphenyl]-4-yl)allyl)-1H-imidazol-2-yl)ethan-1-ol]	0.12 (≈ 0.32 µM)	0.12 (≈ 0.32 µM)	2 (≈ 5.33 µM)	4 (≈ 10.7 µM)	IC50 (E. coli LpxC): 9.25 nM; IC50 (P. aeruginosa LpxC): 23.2 nM
C[C@H](O)c1nccn1[C@@H](/C=C/c1ccc(-c2ccc(OCC(N)CO)cc2)cc1)CO (mixture of isomers) [Compound 25, (2S,E)-4-(4′-(2-amino-3-hydroxypropoxy)-[1,1′-biphenyl]-4-yl)-2-(2-((S)-1-hydroxyethyl)-1H-imidazol-1-yl)but-3-en-1-ol]	–	–	–	–	MIC E. coli ATCC25922 (E. coli ATCC25922; [5]): 2 µg/mL (≈ 4.72 µM); MIC K. pneumoniae ATCC13883 (K. pneumoniae ATCC13883; [5]): 4 µg/mL (≈ 9.44 µM); MIC P. aeruginosa 209 PAO1 (P. aeruginosa 209 PAO1; [5]): 2 µg/mL (≈ 4.72 µM); MIC P. aeruginosa ATCC27835 (P. aeruginosa ATCC27835; [5]): 2 µg/mL (≈ 4.72 µM); IC50 (E. coli LpxC): 44.6 nM; IC50 (P. aeruginosa LpxC): 70.6 nM
C[C@H](O)c1nccn1C/C=C/c1ccc(-c2ccc(OC3CCN(CCO)CC3)cc2)cc1 [Compound 1, (S,E)-2-(4-((4′-(3-(2-(1-hydroxyethyl)-1H-imidazol-1-yl)prop-1-en-1-yl)-[1,1′-biphenyl]-4-yl)oxy)piperidin-1-yl)ethan-1-ol]	1 (≈ 2.23 µM)	1 (≈ 2.23 µM)	4 (≈ 8.94 µM)	4 (≈ 8.94 µM)	IC50 (E. coli LpxC): 25.8 nM; IC50 (P. aeruginosa LpxC): 81 nM
C[C@H](O)c1nccn1C/C=C/c1ccc(-c2ccc(OC[C@H](N)CO)cc2)cc1 [Compound 3, (R)-2-amino-3-((4′-((E)-3-(2-((S)-1-hydroxyethyl)-1H-imidazol-1-yl)prop-1-en-1-yl)-[1,1′-biphenyl]-4-yl)oxy)propan-1-ol]	2 (≈ 5.08 µM)	8 (≈ 20.3 µM)	4 (≈ 10.2 µM)	4 (≈ 10.2 µM)	IC50 (E. coli LpxC): 11.4 nM; IC50 (P. aeruginosa LpxC): 132 nM
C[C@H](O)c1nccn1[C@@H](/C=C/c1ccc(-c2ccc(C3CC(NCc4noc(C(N)=O)n4)C3)cc2)cc1)CO (stereo partly drawn) [Compound 47, 3-(((3-(4′-((S,E)-4-hydroxy-3-(2-((S)-1-hydroxyethyl)-1H-imidazol-1-yl)but-1-en-1-yl)-[1,1′-biphenyl]-4-yl)cyclobutyl)amino)methyl)-1,2,4-oxadiazole-5-carboxamide]	0.5 (≈ 0.946 µM)	1 (≈ 1.89 µM)	4 (≈ 7.57 µM)	4 (≈ 7.57 µM)	–
C[C@H](O)c1nccn1[C@@H](/C=C/c1ccc(-c2ccc(C3CC(C(=O)NCCO)C3)cc2)cc1)CO (stereo partly drawn) [Compound 49, 3-(4′-((S,E)-4-hydroxy-3-(2-((S)-1-hydroxyethyl)-1H-imidazol-1-yl)but-1-en-1-yl)-[1,1′-biphenyl]-4-yl)-N-(2-hydroxyethyl)cyclobutane-1-carboxamide]	4 (≈ 8.41 µM)	4 (≈ 8.41 µM)	2 (≈ 4.21 µM)	2 (≈ 4.21 µM)	–
C[C@H](O)c1nccn1[C@@H](/C=C/c1ccc(-c2ccc([C@@H]3C[C@H]3OCCO)cc2)cc1)CO [Compound 71, (S,E)-4-(4′-((1S,2R)-2-(2-hydroxyethoxy)cyclopropyl)-[1,1′-biphenyl]-4-yl)-2-(2-((S)-1-hydroxyethyl)-1H-imidazol-1-yl)but-3-en-1-ol]	0.5 (≈ 1.15 µM)	0.5 (≈ 1.15 µM)	2 (≈ 4.6 µM)	4 (≈ 9.21 µM)	–
C[C@H](O)c1nccn1[C@@H](/C=C/c1ccc(-c2ccc([C@H]3C[C@H](NC(=O)CO)C3)cc2)cc1)CO [Compound 64, 2-hydroxy-N-((1S,3r)-3-(4′-((S,E)-4-hydroxy-3-(2-((S)-1-hydroxyethyl)-1H-imidazol-1-yl)but-1-en-1-yl)-[1,1′-biphenyl]-4-yl)cyclobutyl)acetamide]	–	–	–	–	MIC (E. coli ATCC25922; [6]): 1 µg/mL (≈ 2.17 µM); MIC (K. pneumoniae ATCC13883; [7]): 2 µg/mL (≈ 4.33 µM); MIC (P. aeruginosa 209 PAO1; [8]): 1 µg/mL (≈ 2.17 µM); MIC (P. aeruginosa ATCC27835; [9]): 2 µg/mL (≈ 4.33 µM)
C[C@H](O)c1nccn1[C@@H](/C=C/c1ccc(-c2ccc(O[C@@H]3CCC[C@H]3O)cc2)cc1)CO [Compound 73, (1R,2R)-2-((4′-((S,E)-4-hydroxy-3-(2-((S)-1-hydroxyethyl)-1H-imidazol-1-yl)but-1-en-1-yl)-[1,1′-biphenyl]-4-yl)oxy)cyclopentan-1-ol]	0.5 (≈ 1.15 µM)	1 (≈ 2.3 µM)	2 (≈ 4.6 µM)	4 (≈ 9.21 µM)	–
C[C@H](O)c1nccn1[C@@H](/C=C/c1ccc(-c2ccc([C@H]3C[C@H](NS(C)(=O)=O)C3)cc2)cc1)CO [Compound 62, N-((1S,3r)-3-(4′-((S,E)-4-hydroxy-3-(2-((S)-1-hydroxyethyl)-1H-imidazol-1-yl)but-1-en-1-yl)-[1,1′-biphenyl]-4-yl)cyclobutyl)methanesulfonamide]	–	–	–	–	MIC (E. coli ATCC25922; [6]): 1 µg/mL (≈ 2.08 µM); MIC (K. pneumoniae ATCC13883; [7]): 0.5 µg/mL (≈ 1.04 µM); MIC (P. aeruginosa 209 PAO1; [8]): 1 µg/mL (≈ 2.08 µM); MIC (P. aeruginosa ATCC27835; [9]): 2 µg/mL (≈ 4.15 µM)
COC(=O)C1CC(c2ccc(-c3ccc(/C=C/[C@@H](CO)n4ccnc4[C@H](C)O)cc3)cc2)C1 (stereo partly drawn) [Compound 67, methyl 3-(4′-((S,E)-4-hydroxy-3-(2-((S)-1-hydroxyethyl)-1H-imidazol-1-yl)but-1-en-1-yl)-[1,1′-biphenyl]-4-yl)cyclobutane-1-carboxylate]	0.5 (≈ 1.12 µM)	1 (≈ 2.24 µM)	2 (≈ 4.48 µM)	2 (≈ 4.48 µM)	–
COC[C@H](N)COc1ccc(-c2ccc(/C=C/[C@@H](CO)n3ccnc3[C@H](C)O)cc2)cc1 [Compound 31, (2S,E)-4-(4′-(2-amino-3-methoxypropoxy)-[1,1′-biphenyl]-4-yl)-2-(2-((S)-1-hydroxyethyl)-1H-imidazol-1-yl)but-3-en-1-ol]	2 (≈ 4.57 µM)	4 (≈ 9.14 µM)	1 (≈ 2.29 µM)	4 (≈ 9.14 µM)	–
C[C@H](O)c1nccn1[C@@H](/C=C/c1ccc(-c2ccc(C3CC(NCC(=O)O)C3)cc2)cc1)CO (stereo partly drawn) [Compound 44, (3-(4′-((S,E)-4-hydroxy-3-(2-((S)-1-hydroxyethyl)-1H-imidazol-1-yl)but-1-en-1-yl)-[1,1′-biphenyl]-4-yl)cyclobutyl)glycine]	4 (≈ 8.67 µM)	8 (≈ 17.3 µM)	4 (≈ 8.67 µM)	4 (≈ 8.67 µM)	–
C[C@H](O)c1nccn1[C@@H](/C=C/c1ccc(-c2ccc(C3CC(C(=O)NCc4ncon4)C3)cc2)cc1)CO (stereo partly drawn) [Compound 53, N-((1,2,4-oxadiazol-3-yl)methyl)-3-(4′-((S,E)-4-hydroxy-3-(2-((S)-1-hydroxyethyl)-1H-imidazol-1-yl)but-1-en-1-yl)-[1,1′-biphenyl]-4-yl)cyclobutane-1-carboxamide]	0.5 (≈ 0.974 µM)	1 (≈ 1.95 µM)	2 (≈ 3.89 µM)	4 (≈ 7.79 µM)	–
C[C@H](O)c1nccn1[C@@H](/C=C/c1ccc(-c2ccc(C3CC(N)C3)cc2)cc1)CO (stereo partly drawn) [Compound 48, (S,E)-4-(4′-(3-aminocyclobutyl)-[1,1′-biphenyl]-4-yl)-2-(2-((S)-1-hydroxyethyl)-1H-imidazol-1-yl)but-3-en-1-ol]	2 (≈ 4.96 µM)	16 (≈ 39.7 µM)	2 (≈ 4.96 µM)	2 (≈ 4.96 µM)	–
C[C@H](O)c1nccn1[C@@H](/C=C/c1ccc(-c2ccc(C3CC(NCC(F)(F)CO)C3)cc2)cc1)CO (stereo partly drawn) [Compound 45, (S,E)-4-(4′-(3-((2,2-difluoro-3-hydroxypropyl)amino)cyclobutyl)-[1,1′-biphenyl]-4-yl)-2-(2-((S)-1-hydroxyethyl)-1H-imidazol-1-yl)but-3-en-1-ol]	0.25 (≈ 0.502 µM)	0.5 (≈ 1 µM)	4 (≈ 8.04 µM)	4 (≈ 8.04 µM)	–
